Data set [1] is described as follows: Analysis by the general solubility equation (GSE): logP and melting point. The class given is physicochemical. The following applies: Mp >200 °C, moderate lipophilicity. The text has this:
The general solubility equation (GSE) developed by Jain et al. provides a quantitative relationship between the three parameters: log Sw = 0.5 − 0.01(Mp − 25) − log P(1)
Starting from the general solubility equation, the poorly soluble drugs were sub-classified by the group of Bergström et al. in two types of molecules: “grease ball” and “brick dust” molecules. […] These compounds cannot form bonds with water molecules, and therefore their solubility is limited by the solvation process. By contrast, “brick dust” molecules are usually compounds with rather rigid and flat molecules with a high melting point (>190 °C) and moderate lipophilicity. Their solubility is being solid-state-limited being mainly restricted by the inability of the compound to dissociate from the crystal lattice and can generally be improved by different methods involving a disruption of the stable crystal lattice.

The test system of the next data set is NCI 60 cancer lines. Also noted: method as in PMID 20728965. The following applies: cited from earlier work.
The mark [2] stands for this setting: the 43 lines with logCI50 under −4.

SMILES strings stand for the structures.

As to `Cc1ccc(C(=O)NC(=S)Nc2cc(C)[nH]n2)cc1` [BM2], the “type of poorly soluble molecule (grease ball / brick dust)” value (“type … (grease ball / brick dust)” for short) in data set [1] was “brick dust”. Consider `Cc1ccc(C(=O)NC(=S)Nc2cc(C)nn2-c2ccccc2)cc1` [BM5], for which the “type … (grease ball / brick dust)” value in data set [1] is on record as “brick dust”. Take `Cc1cc(NC(=S)NC(=O)c2ccccc2)n[nH]1` [BT2]: the “type … (grease ball / brick dust)” value in data set [1] was “brick dust”.

Take `O=C(NC(=S)Nc1cc(-c2ccc(Br)cc2)n[nH]1)c1ccccc1` [N-benzoyl-N'-[3-(4-bromophenyl)-1H-pyrazol-5-yl]-thiourea]: in the data set on NCI 60 cancer lines, the “number of the NCI 60 cancer lines with logCI50 under −4” value is 43. Further, in the data set with NCI 60 cancer lines (setting [2]), the logCI50 average is −5.02 and the “logCI50 values (range)” value is given as −4.12 to −5.75. Regarding `Cc1cc(NC(=S)NC(=O)c2ccc(Cl)cc2)n[nH]1` [BC2], the “type … (grease ball / brick dust)” value in data set [1] is reported as “brick dust”.

Source of the values: article PMC6271227, “Biopharmaceutical Profiling of New Antitumor Pyrazole Derivatives” (Molecules, 2014).
